{"source": "patent US20230309556A1", "about": "“HERBICIDAL COMPOSITIONS RELATED TO OXALOACETATE AND METHODS AND USE THEREOF” (priority 2021, published 2023)", "test_system": "plants", "assay": "general screening of the herbicidal effect", "format": "in vivo", "settings": "10% w/w; compared with Roundup RTU and Bayer Advanced at 10% and 100% Label Rate; results shown in FIG. 1", "procedure": "A general screening of the herbicidal effect of the following compounds was carried out: Bayer Advanced (100% Label Rate), Bayer Advanced (10% Lable Rate), UTC, Diethyl Oxalacetate (10% w/w), Roundup, rtu (10% Label Rate) and Roundup RTU (100% Label Rate)."}
{"molecule": "CCOC(=O)CC(=O)C(=O)OCC", "note": "[Diethyl Oxalacetate]", "values": [{"measurement": "herbicidal activity", "result": "comparable to well-known herbicide products such as Roundup and Bayer Advanced"}]}
